Earlier results as cited in US9034622B2, “Preparation for photodynamic control of microorganisms and use thereof” (priority 2004, dated 2015).

Columns and labels:
isolated perfused heart = conditions: perfusate enriched with GSH
[1] = test system: reperfusion-induced damage or the extent of the myocardial infarct; conditions: intravenous glutathione administration; pigs pre-treated with glutathione synthesis inhibitor; ischemia/reperfusion

Structure (SMILES): N[C@@H](CCC(=O)N[C@@H](CS)C(=O)NCC(=O)O)C(=O)O [glutathione, Glutathione]
- recovery of ventricle function after ischemia and reperfusion (isolated perfused heart): better recovery of ventricle function
- reperfusion-induced damage or extent of the myocardial infarct [1]: could be reduced
